Experimental findings from patent US20250382556A1, “MODULATION OF THE BRANCHED-CHAIN METABOLITE CONTENT OF FRUITS AND VEGETABLES” (BOARD OF TRUSTEES OF MICHIGAN STATE UNIVERSITY, priority 2024, published 2025) are described below.

One assay concerns apple fruit peel. As to the kind of experiment: Complementation of inhibitor-treated apple peel with branched-chain precursors. On the set-up: species or system Malus x domestica Borkh. As to the method: α-Ketoacids (2-oxo acids) were fed to ‘Empire’ and ‘Jonagold’ fruit by preparing vials of excised peel tissue discs in 22-mL glass vials using 20 μL of treatment solution on the prepared paper-peel disc units. Treatment solution contained 20 mM methanol, 0.1% Tween 20, 20 mM of α-keto-β-methylvalerate (3-methyl-2-oxopentanoate), α-ketoisovalerate (3-methyl-2-oxobutanoate), or α-ketoisocaproate (4-methyl-2-oxopentanoate), and when appropriate, 1 mM rimsulfuron.
‘Red Delicious’ apple fruit held in refrigerated air for 5 months (see above) plus 1 day at 22° C. and at an advanced ripeness stage (‘ripe’) were treated with rimsulfuron (1 mM) with 0.2% Tween 20 on day 0 of the study and for the next three consecutive days as above described. The fruit were evaluated daily for volatile emissions (see below) for eight days. On days 0, 2, 4, and 7, representative treated and untreated fruit were selected for tissue collection for metabolite analysis (see below). On day 7, samples of fruit peel were fed, as described above, with water or 20 mM isoleucine or α-keto-β-methylvalerate.
Headspace volatiles from small tissue samples incubated in 22 mL vials were adsorbed for 30 s using a solid-phase micro extraction (SPME) fiber (65 μm PDMS-DVB; Supelco Analytical). […]

The next assay has as its system flowering quince fruit. The assay is described as follows: Headspace volatile emissions of flowering quince fruit treated with AHAS inhibitor. Format: in vivo, Chaenomeles x superba. On the set-up: key to butyl acetate emissions compared to control: —: Dash indicates no significant difference between treatments. As to the method: Whole apple fruit, freshly harvested and at an early stage of ripening (‘ripening’), were held at room temperature (22° C.) and rubbed daily with 3 mL of a freshly made 1mM solution of the inhibitor rimsulfuron (N-((4,6-dimethoxypyrimidin-2-yl)aminocarbonyl)-3-(ethylsulfonyl)-2-pyridinesulfonamide, made from DuPont MATRIX® SG, 25% w/w active ingredient; 0.1% Tween 20) or water solution containing 0.1% Tween 20 before preparation with further treatments. Flowering quince fruit were smaller than the apple fruit and had 2 mL of the control and treatment solutions applied daily at 22° C. ‘Gala’, ‘Empire’, and ‘Jonagold’ apple fruit were treated for four, nine, and seven days before further preparation, respectively. Flowering quince fruit were treated for six days before analysis. Headspace volatile emissions were monitored for three or four representative fruits during the incubation/treatment period to determine appropriate times for further treatments. During method testing, 1 mM solutions of the imidazolinone imazamox was also assessed with apple fruit (2-[4,5-dihydro-4-methyl-4-(1-methylethyl)-5-oxo-1H-imidazol-2-yl]-5-(methoxymethyl)-3-pyridinecarboxylic acid, made from RAPTOR®, 12.1% w/w active ingredient; 0.1% Tween 20).
Headspace volatiles from small tissue samples incubated in 22 mL vials were adsorbed for 30 s using a solid-phase micro extraction (SPME) fiber (65 μm PDMS-DVB; Supelco Analytical). The SPME fiber was then directly desorbed for 1 min in the injection port of a gas chromatograph (GC; HP-6890, Hewlett-Packard) coupled to a time-of-flight mass spectrometer (MS; Pegasus II, LECO). Whole fruits and banana slices were incubated for 20 min at room temperature (22° C.) in 1-L sealed Teflon jars before a 15-s, or 3-min adsorption and 1- or 2-min desorption. Adsorption times were adjusted to ensure instrument responses were in the linear range. All desorbed volatiles were cryofocused at the beginning of the column by immersing said region of the column in liquid nitrogen. After the desorption period, the run was initiated and the liquid nitrogen removed.
The conditions of the system were as follows. Injection port: 200° C., splitless, ultra-purified helium (99.999%) carrier gas, front inlet flow 1.5 mL·min^−1 constant, 10 mL·min^−1 purge flow, 11.5 mL·min^−1 total flow. Oven: initial temperature 40° C. for 0 min, ramped by 43° C.·min^−1 to 185° C. for 0 min. Column: HP-5 MS, 30 m×0.25 mm i.d., 0.25 μm film thickness (Agilent). Transfer line temperature 225° C. MS: Electron ionization (−70 eV), ion source temperature 200° C., solvent delay 50 sec, m/z range 29 to 400, detector voltage 1500 V, data collection rate 20 Hz.
Compounds were identified by comparison of the retention time and mass spectrum against authenticated reference standards and spectra (National Institute of Standards and Technology Mass Spectral Search Program Version 2.0, 2001). Volatiles were quantified by calibration with a standard of 59 authenticated, high-purity compounds (Sigma-Aldrich Co. and Fluka Chemical) including the target compounds. The standard was made by placing 0.5 μL of an equal-part mixture of the neat compounds onto a disc of filter paper before quickly placing the filter paper into a 4-L sealed flask fitted with a Mininert valve (for SPME fiber access, and allowed to vaporize for at least 6 hours. SPME adsorption and desorption times of the standard matched that of the samples quantified (e.g., 30-s adsorption, 1 min desorption when quantifying samples in 22-mL vials).
Statistical analysis was performed using SciPy (v1.6.2), RStudio (v2023.03.0+386), or Microsoft Excel (v16.89). Against a specified value: one-tailed t-test Against two treatments: paired t-test for banana, two-sample t-test for apple and flowering quince. Against more than two treatments: Tukey's test following significant ANOVA. Analyses of branched-chain amino acids were one-tailed, all other metabolites were two-tailed. […]

Setting [1] is: Dr. Banks Pink flowering quince.
[2] abbreviates: Dr. Banks Pink flowering quince peel, 1 mM daily, six days.

Take `CCS(=O)(=O)c1cccnc1S(=O)(=O)NC(=O)Nc1nc(OC)cc(OC)n1` [rimsulfuron, N-((4,6-dimethoxypyrimidin-2-yl)aminocarbonyl)-3-(ethylsulfonyl)-2-pyridinesulfonamide]: the “ester production after feeding isoleucine or α-keto-β-methylvalerate to inhibitor-treated peels” value with apple fruit peel (ripe Red Delicious, 20 mM precursor on day 7) is listed as “recovery of anteiso-branched-chain esters”. In the assay on apple fruit peel (ripening Jonagold and Empire, 20 mM α-ketoacid), the “2-methylbutyl and 2-methylbutanoate esters after exogenous feeding of α-keto-β-methylvalerate to inhibitor-treated fruit” value was “at least a partial rescue”. In addition, in the assay with flowering quince fruit (setting [1]), the “butyl acetate, ethyl butanoate, estragole, or linalool versus untreated” value is reported as “No difference”; the “less 2-methylpropyl acetate and 2-methylbutyl acetate than untreated fruits” value was 94.6%; the “more propyl acetate than untreated fruits” value amounted to 22.7 fold. Moreover, in the assay on flowering quince fruit (setting [2]), the “2-methylbutyl acetate (ile) emissions compared to control” value is 5.2 ± 3.9%, the “2-methylpropyl acetate (val) emissions compared to control” value was 1.1 ± 1.4%, the “butyl acetate emissions compared to control” value is reported as “—” and the “propyl acetate emissions compared to control” value was 2265.0 ± 869.0%. Besides, the “sum of anteiso- and iso-branched-chain esters emissions compared to control” value in the assay on flowering quince fruit (setting [2]) is given as 3.0 ± 2.4%.
